Results from patent US6693082B2, “Method of inhibiting metastatic dissemination using desmopressin” (priority 1999, dated 2004).
Marks after values point to notes of the source that are not given here.

How the values were obtained:
[1] = mouse, in vivo; cited from earlier work
[2] = system: breast carcinoma tumor cells F3II; assay: Assay 2: extension of desmopressin action on experimental metastases (i.v. injection after tumor cell inoculation); format: in vivo, mice
Description: Assay 2: Extension of Desmopressin Action on Experimental Metastases Four groups of ten mice each were organized, and were inoculated with breast carcinoma tumor cells […], in accordance with the above description for Assay 1. Thereafter they were intravenously injected with desmopressin in 0.1 ml of physiological solution at different times (1.5 hours, 3 hours and 24 hours) after the inoculation with tumor cells. Quantification of pulmonary weights took place three weeks after tumoral inoculation. The results are depicted in FIG. 1, in which they are expressed as media±error standard. Similar results were obtained by quantifying the number of pulmonary metastatic nodules per animal.

[3] = system: mammary carcinoma murine model F3II; settings: F3II cells in culture; 100 ng/ml at 1 μg/ml; cited from earlier work
[4] = system: F3II tumor cell suspensions; assay: Assay 3A: cell survival of tumor cell suspensions, trypan blue; format: cell-based, murine; settings: 80 ng/ml and 160 ng/ml; 1-5 hours at 37° C. in serum-free MEM
Description: Assay 3: Cell Survival and Cytotoxicity In Vitro
A. F3II tumor cell suspensions were incubated at 37° C. in serum-free MEM: in the absence of desmopressin, in the presence of desmopressin, at concentrations of 80 ng/ml, in the presence of desmopressin, at concentrations of 160 ng/ml.
After 1-5 hours, cellular viability was assessed by the trypan blue technique. The results are shown in FIG. 2, where the absence of desmopressin (squares) and the presence of desmopressin are represented at concentrations of 80 ng/ml (triangles) and of 160 ng/ml (circles).

[5] = system: murine mammary cancer cell line F3II (sarcomatoid carcinoma); assay: Assay 1: inhibition of pulmonary metastatic colonization, i.v. inoculated F3II cells in BALB/c mice; format: in vivo
Description: (§1) Assay 1: Inhibition of Metastatic Colonization by the Application of Desmopressin 12-16 weeks old syngenic mice from the BALB/c strain weighing 25 g on average were used. As tumor cells, murine mammary cancer cell lines […] (sarcomatoid carcinoma) and LM3 (poorly differentiated adenocarcinoma) were used and kept in monolayer culture in minimum essential medium (MEM, Gibco, Grand Island, N.Y.), supplemented with 5% heat-inactivated bovine fetal serum, 2 mM glutamine and gentamicine 80 μg/ml ([…]. Farías, […]. Bal de Kier Joffé, Characterization of […], a Mammary Sarcomatoid Carcinoma Cell Line Originated From a Mouse Adenocarcinoma, J. Surg. Oncol. 1996, 62:288-97). In order to collect them, cells were trypsinized following conventional procedures. Desmopressin available from Ferring Pharmaceuticals (Malmo, Sweden) was used. Desmopressin as provided by Sigma Chemical Co. (St. Louis, Miss.) was also employed. Mice were inoculated with tumor cells at a concentration of 2×10^5 cells/0.3 ml MEM/mouse in the side vein of their tails, in accordance with the following schedule and using eight animals in each group: Coinjection with Desmopressin: tumor cells were preincubated in serum-free MEM and i.v. coinjected with desmopressin, at a final dose of 1 μg ([…] cells) or 2 μg (LM3 cells) per kg of body weight. Preincubation with Desmopressin: tumor cell suspensions were preincubated in serum-free MEM for 30-60 minutes at 37° C., in the presence of equivalent concentrations of desmopressin (80-160 ng/ml MEM). Then, cells were pelleted, resuspended in serum-free MEM and i.v. injected in the absence of desmopressin. Control: animals inoculated with tumor cells, with no desmopressin treatment. Three weeks after inoculation, lung weights were quantified and the number of pulmonary metastatic nodules was determined under the dissection microscope.

[6] = human, in vivo; cited from earlier work
[7] = in vivo, cited from earlier work
[8] = system: murine mammary cancer cell line LM3 (poorly differentiated adenocarcinoma); assay: Assay 1: inhibition of pulmonary metastatic colonization, i.v. inoculated LM3 cells in BALB/c mice; format: in vivo
Description: as §1

SMILES | Effects of high dose in mice [1] | Extrapulmonary metastases ([2]; animals treated with desmopressin) | Inhibition of metastases (pulmonary weights, FIG. 1) ([2]; desmopressin i.v. 24 hours after inoculation of tumor cells, three weeks after inoculation) | Breast cancer cell proliferation [3] | Urokinase secretion [3] | Cell viability of tumor cell suspensions (trypan blue, FIG. 2) [4] | Number of median pulmonary nodules (range) ([5]; F3II cells preincubated 30-60 minutes at 37° C. with desmopressin (80-160 ng/ml MEM), injected in absence of desmopressin, three weeks) | Decrease in number of metastatic nodules ([5]; F3II cells, coinjection with desmopressin vs control) | Number of median pulmonary nodules (range) ([5]; F3II cells, i.v. coinjection with desmopressin, final dose 1 μg per kg, three weeks after inoculation, p < 0.01 vs control) | Incidence of metastatic nodules after tumor cell preincubation in vitro ([5]; F3II cells, preincubation with equivalent concentrations of desmopressin) | Thrombotic risk [6] [%] | Half-life ([7]; iv, 20 ug) [h] | Drug eliminated unmetabolized [7] [%] | Number of median pulmonary nodules (range) ([8]; LM3 cells preincubated 30-60 minutes at 37° C. with desmopressin (80-160 ng/ml MEM), injected in absence of desmopressin, three weeks) | Decrease in number of metastatic nodules ([8]; LM3 cells, coinjection with desmopressin vs control) | Number of median pulmonary nodules (range) ([8]; LM3 cells, i.v. coinjection with desmopressin, final dose 2 μg per kg, three weeks after inoculation, p < 0.01 vs control) | Incidence of metastatic nodules after tumor cell preincubation in vitro ([8]; LM3 cells, preincubation with equivalent concentrations of desmopressin)
NC(=O)CC[C@@H]1NC(=O)[C@H](Cc2ccccc2)NC(=O)[C@H](Cc2ccc(O)cc2)NC(=O)CCSSC[C@@H](C(=O)N2CCC[C@H]2C(=O)N[C@H](CCCN=C(N)N)C(=O)NCC(N)=O)NC(=O)[C@H](CC(N)=O)NC1=O [desmopressin, 1-deamino-8-D-arginine vasopressin] | no relevant effects | No extrapulmonary metastases were found | inhibition of metastases was also effected | able to modulate | able to modulate | did not reduce cell viability | 19 (3-66) | about 70% | 5 (0-12)* | did not lessen the incidence of metastatic nodules | 0.0001 | ≤ 2.67 | 60 | 12 (8-37) | about 70% | 3 (1-18)* | did not lessen the incidence of metastatic nodules
NC(=O)CC[C@@H]1NC(=O)[C@H](Cc2ccccc2)NC(=O)[C@H](Cc2ccc(O)cc2)NC(=O)[C@@H](N)CSSC[C@@H](C(=O)N2CCC[C@H]2C(=O)N[C@@H](CCCN=C(N)N)C(=O)NCC(N)=O)NC(=O)[C@H](CC(N)=O)NC1=O [vasopressin] |  |  |  | able to modulate | able to modulate |  |  |  |  |  |  |  |  |  |  |  | 
